Laboratory results reported in US10227344B2, “CK2 inhibitors, compositions and methods thereof” (Polaris Pharmaceuticals, Inc., priority 2016, dated 2019).

Assays:
Assay type in all cases: cell-based
H1299 = test: Cancer cell panel, cell viability (resazurin): NSCLC, H1299; details: 72 hours, labelled drug combined with Example 3
Caki-2 = test: Cancer cell panel, cell viability (resazurin): Renal, Caki-2; details: Caki-2 (Renal), 72 hours; labelled drug combined with Example 3
A2780 = test: Cancer cell panel, cell viability (resazurin): Ovarian, A2780; details: 72 hours, labelled drug combined with Example 3
ZR-75-1 = test: Cancer cell panel, cell viability (resazurin): Breast, ZR-75-1; details: ZR-75-1 (Breast), 72 hours; labelled drug combined with Example 3
U87MG = test: Cancer cell panel, cell viability (resazurin): Glioblastoma, U87MG; details: 72 hours, labelled drug combined with Example 3
BT-20 = test: Cancer cell panel, cell viability (resazurin): Breast, BT-20; details: BT-20 (Breast), 72 hours; labelled drug combined with Example 3
Caov-3 = test: Cancer cell panel, cell viability (resazurin): Ovarian, Caov-3; details: Caov-3 (Ovarian), 72 hours; labelled drug combined with Example 3
SK-MEL-24 = test: Cancer cell panel, cell viability (resazurin): Melanoma, SK-MEL-24; details: SK-MEL-24 (Melanoma), 72 hours; labelled drug combined with Example 3
H460 = test: Cancer cell panel, cell viability (resazurin): NSCLC, H460; details: 72 hours, labelled drug combined with Example 3
EOL-1 = test: Cancer cell panel, cell viability (resazurin): Leukemia, EOL-1; details: EOL-1 (Leukemia), 72 hours; labelled drug combined with Example 3
Colo205 = test: Cancer cell panel, cell viability (resazurin): Colon, Colo205; details: 72 hours, labelled drug combined with Example 3
786-O = test: Cancer cell panel, cell viability (resazurin): Renal, 786-O; details: 786-O (Renal), 72 hours; labelled drug combined with Example 3
MDA-MB-157 = test: Cancer cell panel, cell viability (resazurin): Breast, MDA-MB-157; details: MDA-MB-157 (Breast), 72 hours; labelled drug combined with Example 3
Caki-1 = test: Cancer cell panel, cell viability (resazurin): Renal, Caki-1; details: Caki-1 (Renal), 72 hours; labelled drug combined with Example 3
Panc-1 = test: Cancer cell panel, cell viability (resazurin): Pancreatic, Panc-1; details: Panc-1 (Pancreatic), 72 hours; labelled drug combined with Example 3
WM-115 = test: Cancer cell panel, cell viability (resazurin): Melanoma, WM-115; details: WM-115 (Melanoma), 72 hours; labelled drug combined with Example 3
HCT116 = test: Cancer cell panel, cell viability (resazurin): Colon, HCT116; details: 72 hours, labelled drug combined with Example 3
H23 = test: Cancer cell panel, cell viability (resazurin): NSCLC, H23; details: 72 hours, labelled drug combined with Example 3
SK-MEL-3 = test: Cancer cell panel, cell viability (resazurin): Melanoma, SK-MEL-3; details: SK-MEL-3 (Melanoma), 72 hours; labelled drug combined with Example 3
U266 = test: Cancer cell panel, cell viability (resazurin): multiple myeloma, U266; details: 72 hours, labelled drug combined with Example 3
H1975 = test: Cancer cell panel, cell viability (resazurin): NSCLC, H1975; details: 72 hours, labelled drug combined with Example 3
MDA-MB-231 = test: Cancer cell panel, cell viability (resazurin): Breast, MDA-MB-231; details: MDA-MB-231 (Breast), 72 hours; labelled drug combined with Example 3
H2122 = test: Cancer cell panel, cell viability (resazurin): NSCLC, H2122; details: 72 hours, labelled drug combined with Example 3
ACHN = test: Cancer cell panel, cell viability (resazurin): Renal, ACHN; details: 72 hours, labelled drug combined with Example 3
Daudi = test: Cancer cell panel, cell viability (resazurin): Burkitt's Lymphoma, Daudi; details: 72 hours, labelled drug combined with Example 3
A375 = test: Cancer cell panel, cell viability (resazurin): Melanoma, A375; details: 72 hours, labelled drug combined with Example 3
SKOV-3 = test: Cancer cell panel, cell viability (resazurin): Ovarian, SKOV-3; details: SKOV-3 (Ovarian), 72 hours; labelled drug combined with Example 3
HL60 = test: Cancer cell panel, cell viability (resazurin): Leukemia, HL60; details: 72 hours, labelled drug combined with Example 3
T47D = test: Cancer cell panel, cell viability (resazurin): Breast, T47D; details: 72 hours, labelled drug combined with Example 3
Raji = test: Cancer cell panel, cell viability (resazurin): Burkitt's Lymphoma, Raji; details: 72 hours, labelled drug combined with Example 3
LnCap = test: Cancer cell panel, cell viability (resazurin): Prostate, LnCap; details: 72 hours, labelled drug combined with Example 3
BxPC3 = test: Cancer cell panel, cell viability (resazurin): Pancreatic, BxPC3; details: 72 hours, labelled drug combined with Example 3
NAMALWA = test: Cancer cell panel, cell viability (resazurin): Burkitt's Lymphoma, NAMALWA; details: 72 hours, labelled drug combined with Example 3
A549 = test: Cancer cell panel, cell viability (resazurin): NSCLC, A549; details: 72 hours, labelled drug combined with Example 3
SkBr-3 = test: Cancer cell panel, cell viability (resazurin): Breast, SkBr-3; details: SkBr-3 (Breast), 72 hours; labelled drug combined with Example 3
MeWO = test: Cancer cell panel, cell viability (resazurin): Melanoma, MeWO; details: 72 hours, labelled drug combined with Example 3
MDA-MB-453 = test: Cancer cell panel, cell viability (resazurin): Breast, MDA-MB-453; details: MDA-MB-453 (Breast), 72 hours; labelled drug combined with Example 3
PC3 = test: Cancer cell panel, cell viability (resazurin): Prostate, PC3; details: 72 hours, labelled drug combined with Example 3
DLD-1 = test: Cancer cell panel, cell viability (resazurin): Colon, DLD-1; details: DLD-1 (Colon), 72 hours; labelled drug combined with Example 3
MOLT4 = test: Cancer cell panel, cell viability (resazurin): Leukemia, MOLT4; details: 72 hours, labelled drug combined with Example 3
LoVo = test: Cancer cell panel, cell viability (resazurin): Colon, LoVo; details: 72 hours, labelled drug combined with Example 3
Mia-Paca-2 = test: Cancer cell panel, cell viability (resazurin): Pancreatic, Mia-Paca-2; details: Mia-Paca-2 (Pancreatic), 72 hours; labelled drug combined with Example 3

Question: How did the “synergy, additivity or antagonism of the combination of Example 3 with the anti-cancer drug” value (shortened to “synergy, additivity or antagonism”) (H1299) turn out when N.N.[Cl][Pt][Cl] [Cisplatin, cisplatin] was run?
Answer: + (Additive relative to each agent alone (CI = 0.9-1 by Bliss Independence Model and <0.9 by Highest Single Agent Model))

Question: What about the “synergy, additivity or antagonism” value (Caki-2) of the same compound?
Answer: + (Additive relative to each agent alone (CI = 0.9-1 by Bliss Independence Model and <0.9 by Highest Single Agent Model))

Question: What about the “synergy, additivity or antagonism” value (A2780) of the same compound?
Answer: + + + + (Strong synergy relative to each agent alone (CI < 0.4 by Bliss Independence Model))

Question: What about the “synergy, additivity or antagonism” value (ZR-75-1) of the same compound?
Answer: + (Additive relative to each agent alone (CI = 0.9-1 by Bliss Independence Model and <0.9 by Highest Single Agent Model))

Question: And the “synergy, additivity or antagonism” value (U87MG)?
Answer: + (Additive relative to each agent alone (CI = 0.9-1 by Bliss Independence Model and <0.9 by Highest Single Agent Model))

Question: And the “synergy, additivity or antagonism” value (BT-20)?
Answer: + + (Slight synergy relative to each agent alone (CI = 0.75-0.9 by Bliss Independence Model))

Question: And the “synergy, additivity or antagonism” value (Caov-3)?
Answer: + (Additive relative to each agent alone (CI = 0.9-1 by Bliss Independence Model and <0.9 by Highest Single Agent Model))

Question: What about the “synergy, additivity or antagonism” value (SK-MEL-24) of the same compound?
Answer: + + (Slight synergy relative to each agent alone (CI = 0.75-0.9 by Bliss Independence Model))

Question: What about the “synergy, additivity or antagonism” value (H460) of the same compound?
Answer: + + (Slight synergy relative to each agent alone (CI = 0.75-0.9 by Bliss Independence Model))

Question: What about the “synergy, additivity or antagonism” value (EOL-1) of the same compound?
Answer: + + (Slight synergy relative to each agent alone (CI = 0.75-0.9 by Bliss Independence Model))

Question: What about the “synergy, additivity or antagonism” value (Colo205) of the same compound?
Answer: + + (Slight synergy relative to each agent alone (CI = 0.75-0.9 by Bliss Independence Model))

Question: And the “synergy, additivity or antagonism” value (786-O)?
Answer: + + (Slight synergy relative to each agent alone (CI = 0.75-0.9 by Bliss Independence Model))

Question: And the “synergy, additivity or antagonism” value (MDA-MB-157)?
Answer: + + + (Synergy relative to each agent alone (CI = 0.4-0.74 by Bliss Independence Model))

Question: And the “synergy, additivity or antagonism” value (Caki-1)?
Answer: + (Additive relative to each agent alone (CI = 0.9-1 by Bliss Independence Model and <0.9 by Highest Single Agent Model))

Question: What about the “synergy, additivity or antagonism” value (Panc-1) of the same compound?
Answer: + (Additive relative to each agent alone (CI = 0.9-1 by Bliss Independence Model and <0.9 by Highest Single Agent Model))

Question: What about the “synergy, additivity or antagonism” value (WM-115) of the same compound?
Answer: + + (Slight synergy relative to each agent alone (CI = 0.75-0.9 by Bliss Independence Model))

Question: And the “synergy, additivity or antagonism” value (HCT116)?
Answer: + (Additive relative to each agent alone (CI = 0.9-1 by Bliss Independence Model and <0.9 by Highest Single Agent Model))

Question: What about the “synergy, additivity or antagonism” value (H23) of the same compound?
Answer: + + + (Synergy relative to each agent alone (CI = 0.4-0.74 by Bliss Independence Model))

Question: And the “synergy, additivity or antagonism” value (SK-MEL-3)?
Answer: + (Additive relative to each agent alone (CI = 0.9-1 by Bliss Independence Model and <0.9 by Highest Single Agent Model))

Question: And the “synergy, additivity or antagonism” value (U266)?
Answer: + (Additive relative to each agent alone (CI = 0.9-1 by Bliss Independence Model and <0.9 by Highest Single Agent Model))

Question: What about the “synergy, additivity or antagonism” value (H1975) of the same compound?
Answer: + (Additive relative to each agent alone (CI = 0.9-1 by Bliss Independence Model and <0.9 by Highest Single Agent Model))

Question: And the “synergy, additivity or antagonism” value (MDA-MB-231)?
Answer: + (Additive relative to each agent alone (CI = 0.9-1 by Bliss Independence Model and <0.9 by Highest Single Agent Model))

Question: What about the “synergy, additivity or antagonism” value (H2122) of the same compound?
Answer: + + (Slight synergy relative to each agent alone (CI = 0.75-0.9 by Bliss Independence Model))

Question: And the “synergy, additivity or antagonism” value (ACHN)?
Answer: + (Additive relative to each agent alone (CI = 0.9-1 by Bliss Independence Model and <0.9 by Highest Single Agent Model))

Question: And the “synergy, additivity or antagonism” value (Daudi)?
Answer: + (Additive relative to each agent alone (CI = 0.9-1 by Bliss Independence Model and <0.9 by Highest Single Agent Model))

Question: And the “synergy, additivity or antagonism” value (A375)?
Answer: + + (Slight synergy relative to each agent alone (CI = 0.75-0.9 by Bliss Independence Model))

Question: And the “synergy, additivity or antagonism” value (SKOV-3)?
Answer: + (Additive relative to each agent alone (CI = 0.9-1 by Bliss Independence Model and <0.9 by Highest Single Agent Model))

Question: And the “synergy, additivity or antagonism” value (HL60)?
Answer: + (Additive relative to each agent alone (CI = 0.9-1 by Bliss Independence Model and <0.9 by Highest Single Agent Model))

Question: What about the “synergy, additivity or antagonism” value (T47D) of the same compound?
Answer: + (Additive relative to each agent alone (CI = 0.9-1 by Bliss Independence Model and <0.9 by Highest Single Agent Model))

Question: What about the “synergy, additivity or antagonism” value (Raji) of the same compound?
Answer: + + (Slight synergy relative to each agent alone (CI = 0.75-0.9 by Bliss Independence Model))

Question: What about the “synergy, additivity or antagonism” value (LnCap) of the same compound?
Answer: + + (Slight synergy relative to each agent alone (CI = 0.75-0.9 by Bliss Independence Model))

Question: What about the “synergy, additivity or antagonism” value (BxPC3) of the same compound?
Answer: + (Additive relative to each agent alone (CI = 0.9-1 by Bliss Independence Model and <0.9 by Highest Single Agent Model))

Question: And the “synergy, additivity or antagonism” value (NAMALWA)?
Answer: + (Additive relative to each agent alone (CI = 0.9-1 by Bliss Independence Model and <0.9 by Highest Single Agent Model))

Question: What about the “synergy, additivity or antagonism” value (A549) of the same compound?
Answer: + + + + (Strong synergy relative to each agent alone (CI < 0.4 by Bliss Independence Model))

Question: What about the “synergy, additivity or antagonism” value (SkBr-3) of the same compound?
Answer: + + (Slight synergy relative to each agent alone (CI = 0.75-0.9 by Bliss Independence Model))

Question: What about the “synergy, additivity or antagonism” value (MeWO) of the same compound?
Answer: + (Additive relative to each agent alone (CI = 0.9-1 by Bliss Independence Model and <0.9 by Highest Single Agent Model))

Question: And the “synergy, additivity or antagonism” value (MDA-MB-453)?
Answer: + + (Slight synergy relative to each agent alone (CI = 0.75-0.9 by Bliss Independence Model))

Question: And the “synergy, additivity or antagonism” value (PC3)?
Answer: + (Additive relative to each agent alone (CI = 0.9-1 by Bliss Independence Model and <0.9 by Highest Single Agent Model))

Question: And the “synergy, additivity or antagonism” value (DLD-1)?
Answer: + (Additive relative to each agent alone (CI = 0.9-1 by Bliss Independence Model and <0.9 by Highest Single Agent Model))

Question: And the “synergy, additivity or antagonism” value (MOLT4)?
Answer: + + (Slight synergy relative to each agent alone (CI = 0.75-0.9 by Bliss Independence Model))

Question: And the “synergy, additivity or antagonism” value (LoVo)?
Answer: + + (Slight synergy relative to each agent alone (CI = 0.75-0.9 by Bliss Independence Model))

Question: What about the “synergy, additivity or antagonism” value (Mia-Paca-2) of the same compound?
Answer: + (Additive relative to each agent alone (CI = 0.9-1 by Bliss Independence Model and <0.9 by Highest Single Agent Model))
